“And” between values parts separate entries of the source, which are not always exact repeats. Equal entries are not always repeated. Inconclusive results and toxic doses are left out. No stated cut-off is given here; in the data, active means T/C of 150% or more; inactive means T/C below 125%.
Test system: L1210 leukemia ip in BDF1 mice, survival T/C
Experiment: NCI In Vivo Anticancer Drug Screen. Data for tumor model L1210 Leukemia (intraperitoneal) in B6D2F1 (BDF1) mice
Details: endpoint: mean survival time, higher = longer survival
Outline: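 Transplanted-tumor mice were given test agent; controls received vehicle only. Survival readings from the two groups were divided (treated over control).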

[1] = dose: 100.0 mg/kg/injection, schedule: Q01DX009 (ip), vehicle: Klucel (hydroxypropylcellulose) (HPC)
[2] = dose: 200.0 mg/kg/injection, schedule: Q01DX009 (ip), vehicle: Klucel (hydroxypropylcellulose) (HPC)
[3] = dose: 400.0 mg/kg/injection, schedule: Q01DX009 (ip), vehicle: Klucel (hydroxypropylcellulose) (HPC)
[4] = dose: 100.0 mg/kg/injection, schedule: Q04DX003 (ip), vehicle: Klucel (hydroxypropylcellulose) (HPC)
[5] = dose: 200.0 mg/kg/injection, schedule: Q04DX003 (ip), vehicle: Klucel (hydroxypropylcellulose) (HPC)
[6] = dose: 400.0 mg/kg/injection, schedule: Q04DX003 (ip), vehicle: Klucel (hydroxypropylcellulose) (HPC)
[7] = dose: 50.0 mg/kg/injection, schedule: Q01DX009 (ip), vehicle: Klucel (hydroxypropylcellulose) (HPC)
[8] = dose: 100.0 mg/kg/injection, schedule: Q04DX003 (ip), vehicle: saline
[9] = dose: 100.0 mg/kg/injection, schedule: Q01DX001 (ip), vehicle: saline
[10] = dose: 200.0 mg/kg/injection, schedule: Q01DX001 (ip), vehicle: saline
[11] = dose: 400.0 mg/kg/injection, schedule: Q01DX001 (ip), vehicle: saline
[12] = dose: 100.0 mg/kg/injection, schedule: Q01DX001 (ip), vehicle: carboxymethylcellulose (CMC)
[13] = dose: 200.0 mg/kg/injection, schedule: Q01DX001 (ip), vehicle: carboxymethylcellulose (CMC)
[14] = dose: 400.0 mg/kg/injection, schedule: Q01DX001 (ip), vehicle: carboxymethylcellulose (CMC)

Measured: T/C

OCc1ccccc1NCc1ccccc1
inactive: [1] 103 % of control | dose: 100.0 mg/kg/injection, schedule: Q04DX003 (ip), vehicle: other 105 % of control | [2] 91 % of control | dose: 200.0 mg/kg/injection, schedule: Q04DX003 (ip), vehicle: other 100 % of control | [3] 99 % of control | dose: 400.0 mg/kg/injection, schedule: Q04DX003 (ip), vehicle: other 97 % of control

CCOC(=O)CC1=CCCCC1
inactive: [1] 103 % of control | [4] 102 % of control | [2] 107 % of control | [5] 96 % of control | [3] 98 % of control | [6] 86 % of control

COc1ccc(C=O)cc1Br
inactive: [4] 102 % of control | [5] 97 % of control | [6] 95 % of control

CCCCCCCN(CCCCCCC)CC(O)c1cc2ccc(Cl)cc2c2cccnc12 (stereo not given)
inactive: [7] 98 % of control | [1] 96 % of control | [4] 102 % of control | [5] 104 % of control

CCN(CC)CCOc1ccccc1C(=O)CCc1ccccc1
inactive: dose: 12.5 mg/kg/injection, schedule: Q01DX009 (ip), vehicle: saline 93 % of control | dose: 25.0 mg/kg/injection, schedule: Q01DX009 (ip), vehicle: saline 93 % of control | dose: 25.0 mg/kg/injection, schedule: Q04DX003 (ip), vehicle: saline 99 % of control | dose: 50.0 mg/kg/injection, schedule: Q01DX009 (ip), vehicle: saline 100 % of control | dose: 50.0 mg/kg/injection, schedule: Q04DX003 (ip), vehicle: saline 97 % of control | [8] 102 % of control

OC1CCCC2CCC[N-]C12.OC1CCCC2CCC[N-]C12.[Mn+2] (stereo not given)
inactive: dose: 50.0 mg/kg/injection, schedule: Q04DX003 (ip), vehicle: Klucel (hydroxypropylcellulose) (HPC) 106 % of control | [4] 113 % of control | [5] 106 % of control

O=C1CCC(=O)N1CC(O)COc1ccccc1 (stereo not given)
inactive: dose: 100.0 mg/kg/injection, schedule: Q01DX009 (ip), vehicle: saline with Tween-80 101 % of control | [4] 93 % of control | dose: 200.0 mg/kg/injection, schedule: Q01DX009 (ip), vehicle: saline with Tween-80 101 % of control | [5] 97 % of control | dose: 400.0 mg/kg/injection, schedule: Q01DX009 (ip), vehicle: saline with Tween-80 110 % of control | [6] 106 % of control

CC1CCCCN1C(=O)Nc1ccc(Cl)cc1[N+](=O)[O-] (stereo not given)
inactive: [1] 100 % of control | [2] 91 % of control | [3] 92 % of control

Nc1nc2c(c(=O)[nH]1)N=C(CCNc1ccc(C(=O)O)cc1)CN2
inactive: [9] 105 % of control | [10] 109 % of control | [11] 109 % of control

O=C(CC(C[N+](=O)[O-])c1ccccc1)c1ccc(Cl)cc1 (stereo not given)
inactive: [1] 96 % of control | [2] 90 % of control | [3] 92 % of control

CC(=O)/C(=C\c1ccc(N(C)C)cc1)C(C)=[N+](C)C(=O)c1c(/[N+](C)=C(C)\C(=C\c2ccc(N(C)C)cc2)C(C)=O)ncn1C
inactive: dose: 50.0 mg/kg/injection, schedule: Q01DX001 (ip), vehicle: saline 103 % of control | [9] 103 % of control and 90 % of control | [10] 97 % of control and 118 % of control

CCCCCCCCCCCCCCCCS(=O)(=O)N/N=C/c1ccc(N(C)C)cc1
inactive: [12] 92 % of control | [13] 87 % of control | [14] 89 % of control

CC(=O)OC1C=CCC2C(=O)C34CC=CC(OC(C)=O)C3(C(=O)c3ccccc3C4=O)C(=O)C12 (stereo not given)
inactive: dose: 0.25 mg/kg/injection, schedule: Q04DX003 (ip), vehicle: water 97 % of control | dose: 0.5 mg/kg/injection, schedule: Q04DX003 (ip), vehicle: water 102 % of control | dose: 1.0 mg/kg/injection, schedule: Q04DX003 (ip), vehicle: water 95 % of control | dose: 2.0 mg/kg/injection, schedule: Q04DX003 (ip), vehicle: water 98 % of control | dose: 4.0 mg/kg/injection, schedule: Q04DX003 (ip), vehicle: water 102 % of control | dose: 8.0 mg/kg/injection, schedule: Q04DX003 (ip), vehicle: water 107 % of control | dose: 16.0 mg/kg/injection, schedule: Q04DX003 (ip), vehicle: saline 96 % of control | dose: 16.0 mg/kg/injection, schedule: Q04DX003 (ip), vehicle: water 92 % of control | dose: 32.0 mg/kg/injection, schedule: Q04DX003 (ip), vehicle: saline 98 % of control | dose: 64.0 mg/kg/injection, schedule: Q04DX003 (ip), vehicle: saline 102 % of control

CC(C)n1c2c([n+](C)c1/C=C/c1ccccc1)C(=O)c1ccccc1C2=O
inactive: dose: 1.0 mg/kg/injection, schedule: Q01DX009 (ip), vehicle: Klucel (hydroxypropylcellulose) (HPC) 106 % of control | dose: 1.0 mg/kg/injection, schedule: Q04DX003 (ip), vehicle: Klucel (hydroxypropylcellulose) (HPC) 107 % of control | dose: 2.0 mg/kg/injection, schedule: Q01DX009 (ip), vehicle: Klucel (hydroxypropylcellulose) (HPC) 101 % of control | dose: 2.0 mg/kg/injection, schedule: Q04DX003 (ip), vehicle: Klucel (hydroxypropylcellulose) (HPC) 96 % of control | dose: 4.0 mg/kg/injection, schedule: Q04DX003 (ip), vehicle: Klucel (hydroxypropylcellulose) (HPC) 86 % of control | dose: 5.0 mg/kg/injection, schedule: Q01DX001 (ip), vehicle: saline 103 % of control

CCCCCCCN(CCCCCCC)CC(O)c1cc2ccc(Cl)cc2nc1-c1ccc(Cl)cc1 (stereo not given)
inactive: [1] 87 % of control | [2] 97 % of control | [3] 87 % of control

NC(=S)c1cn(C2OC(CO)C(O)C2O)c2ncncc12 (stereo not given)
active: dose: 100.0 mg/kg/injection, schedule: Q01DX005 (ip), vehicle: saline 164 % of control | dose: 200.0 mg/kg/injection, schedule: Q01DX005 (ip), vehicle: saline 167 % of control

CC1=C(C)C(=O)C(SC2CC(=O)OC2=O)=C(C)C1=O (stereo not given)
inactive: dose: 100.0 mg/kg/injection, schedule: Q01DX001 (ip), vehicle: saline with Tween-80 88 % of control

CCCC[N+](CC)(CC)CCOC(=O)C1C2CC3OC(=O)C1C3C2 (stereo not given)
inactive: [8] 101 % of control

Cc1ccc(NC(=O)OCCOc2cc(C)c(Cl)c(C)c2)c([N+](=O)[O-])c1
inactive: [7] 95 % of control | [1] 95 % of control | [4] 90 % of control | [2] 91 % of control | [5] 97 % of control | [6] 92 % of control

C=C1CCOC2(C(O)C(C)(O)CO)NC(=O)C1(O)NC2=O (stereo not given)
inactive: dose: 100.0 mg/kg/injection, schedule: Q04DX002 (ip), vehicle: saline 96 % of control | dose: 200.0 mg/kg/injection, schedule: Q04DX002 (ip), vehicle: saline 107 % of control | dose: 400.0 mg/kg/injection, schedule: Q04DX002 (ip), vehicle: saline 104 % of control

CC1CCCC(C)[N+]1=C(Nc1cccc(Cl)c1)c1ccccc1 (stereo not given)
inactive: dose: 100.0 mg/kg/injection, schedule: Q04DX002 (ip), vehicle: Klucel (hydroxypropylcellulose) (HPC) 97 % of control | dose: 200.0 mg/kg/injection, schedule: Q04DX002 (ip), vehicle: Klucel (hydroxypropylcellulose) (HPC) 106 % of control | dose: 400.0 mg/kg/injection, schedule: Q04DX002 (ip), vehicle: Klucel (hydroxypropylcellulose) (HPC) 101 % of control

CCOC(=O)CCSc1ccc(NC)cc1
inactive: dose: 100.0 mg/kg/injection, schedule: Q01DX009 (ip), vehicle: saline 94 % of control | dose: 100.0 mg/kg/injection, schedule: Q04DX003 (ip), vehicle: acetone 102 % of control | dose: 200.0 mg/kg/injection, schedule: Q01DX009 (ip), vehicle: saline 96 % of control | dose: 200.0 mg/kg/injection, schedule: Q04DX003 (ip), vehicle: acetone 102 % of control | dose: 400.0 mg/kg/injection, schedule: Q01DX009 (ip), vehicle: saline 97 % of control | dose: 400.0 mg/kg/injection, schedule: Q04DX003 (ip), vehicle: acetone 105 % of control

NC(=O)C(=O)c1ccco1
inactive: [9] 92 % of control | [10] 101 % of control | [11] 108 % of control

Cc1ccc(NC(=O)c2ccccc2C(=O)O)cc1Cl
inactive: [1] 93 % of control | [4] 96 % of control | [2] 98 % of control | [5] 93 % of control | [3] 95 % of control | [6] 96 % of control

CCCCCCCCCCCNC=O
inactive: [9] 103 % of control | [10] 101 % of control | [11] 101 % of control

CCCCC(SC(CC)(C(C)=O)c1ccccc1)C(N)=O (stereo not given)
inactive: [12] 102 % of control | [13] 113 % of control | [14] 96 % of control
